Assay: Preliminary solubility tests
Type: physicochemical
Settings: preliminary solubility tests for both compounds

hydrophobicity compared with paclitaxel: more hydrophobic
SMILES: CC(=O)N(C(C)=O)C1=C(Cl)C(=O)c2ccccc2C1=O [Zapp88, 2-chloro-3-diacetylamino-1,4-naphthoquinone]
